Measured values published in patent publication US8937167B2 (Washington University, priority 2009, dated 2015).
“Also recorded” adds a separate entry of the source. Read-outs that look alike come from different tables or passages of the source.

How the values were obtained:
FimH lectin domain = molecular target: T1, FimH lectin domain (Escherichia coli, UniProt P08191); assay: biochemical; type: binding, E. coli
T1 construct: made by biotinylating FimH lectin domain^25 at a 1:1 molar ratio with NHS-PEO4-Biotin
Protocol: Samples or buffer (200 μL per well) were dispensed into 96-well microtiter plates (Greiner Bio-One, Monroe N.C.) and maintained at 30° C. with 1000 RPM shaking. Pre-manufactured pins for individual assays were made by biotinylating FimH lectin domain^25 at a 1:1 molar ratio with NHS-PEO4-Biotin (Thermo Fisher, Rockford Ill.), diluting it to 50 μg/ml in 20 mM HEPES pH 7.5, 150 mM NaCl (HBS), immobilizing it on high-binding streptavidin-coated biosensor tips (Super Streptavidin, ForteBio, Inc., Menlo Park, Calif.) for 10 minutes at 30° C., blocking the pins with 10 μg/ml biocytin for 2 minutes, washing in HBS for 1 hour, and rinsing in 15% sucrose in HBS. Pins were then air dried for 30 minutes and stored in their original packaging with a dessicant packet. Assays were performed by re-wetting premade pins with HBS for 15 minutes, then storing them in fresh HBS until use. […] Each experimental pin was referenced to a biocytin-blocked pin to control for instrument drift and a second biocytin-blocked pin that was passed through a duplicate experiment in the same 96-well plate to control for nonspecific binding of the compound to the pin. Kinetics data and affinity constants were generated automatically by the global fitting protocol in ForteBio Data Analysis version 6.3.

FimH = FimH (Escherichia coli, UniProt Q1R2J4); conditions: Examples 30-36 numbering;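 note: hemagglutination inhibition of guinea pig erythrocytes agglutinated by type 1 piliated uropathogenic E. coli via FimH mannose binding, quantified through serial dilutions of compound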
UTI89 biofilm = assay: Disruption of preformed UTI89 biofilm (PVC plates, coverslips, confocal); type: cell-based, uropathogenic E. coli UTI89; conditions: mannoside added to 24 h biofilm, further 16 h; confocal at 0.3 μM
Protocol: UTI89 biofilm was grown in LB+/− mannoside for 24 h at 22° C. in PVC plates and quantitated using crystal violet. UTI89 biofilm for confocal microscopy was grown in LB for 24 h at 22° C. on PVC coverslips. Mannoside was then added and biofilm was grown for an additional 16 h. Coverslips were then washed in PBS, fixed in 2% paraformaldehyde and stained with SYTO9 prior to confocal microscopy. For all animal experiments UTI89 or PBC-1 was grown 2×24 h statically in LB at 37° C. and inoculated at a dose of 1×10^7 bacteria in 50 μl. All mice used were female C3H/HeN (Jackson). For the pretreatment studies, bacteria were incubated with mannoside for 20 min prior to inoculation into the mouse. […] After growth at 37° C. overnight, bacterial counts were determined. […]
Biofilm assay. […] After 48 h of growth, wells were rinsed with water and stained with crystal violet for quantification as described. […] Wells were then rinsed, stained with crystal violet and quantified. […]
UTI89 was grown in LB in PVC plates and allowed to form biofilm at RT for 24 or 48 h. […] Biofilm formation was then quantitated using the standard crystal violet assay. […]
UTI89 was grown in LB broth in wells of PVC microtiter plates at 23° C. in the presence of individual mannosides at varying concentrations. After 48 h of growth, wells were rinsed with water and stained with crystal violet for quantification as described. […]

UTI89 = assay: Mouse UTI model, bladder bacterial titers (CFU); type: in vivo, E. coli (UPEC); host C3H/HeN mouse; conditions: UTI89; 6 hpi; mannoside IP 30 min prior and/or TMP-SMZ 3 days in drinking water
Protocol: For mannoside treatment, bacteria were incubated with 1 mM ZFH56 prior to inoculation. Every 24 h for 3 days, mice were transurethrally inoculated with 1 mM ZFH56. For antibiotic treatment, mice were inoculated with UTI89 and immediately given antibiotics in the drinking water for 3 days. Antibiotics used were trimethoprim-sulfamethoxazole (SXT) at […], respectively. For dual treatment, bacteria were incubated with 1 mM ZFH56 prior to inoculation. Every 24 h for 3 days, mice were transurethrally inoculated with 1 mM ZFH56. Additionally, mice were immediately given antibiotics in the drinking water for 3 days as in the antibiotic only treatment. Urine was collected every day for 13 days. At 2 weeks, mice were sacrificed and bladders were titered.
UTI89 biofilm was grown in LB+/− mannoside for 24 h at 22° C. in PVC plates and quantitated using crystal violet. UTI89 biofilm for confocal microscopy was grown in LB for 24 h at 22° C. on PVC coverslips. Mannoside was then added and biofilm was grown for an additional 16 h. Coverslips were then washed in PBS, fixed in 2% paraformaldehyde and stained with SYTO9 prior to confocal microscopy. For all animal experiments UTI89 or PBC-1 was grown 2×24 h statically in LB at 37° C. and inoculated at a dose of 1×10^7 bacteria in 50 μl. All mice used were female C3H/HeN (Jackson). For the pretreatment studies, bacteria were incubated with mannoside for 20 min prior to inoculation into the mouse. […] For CFU counts, bladders were harvested at 6 hpi and placed in 1 mL PBS. Bladders were then homogenized, diluted and plated on LB. After growth at 37° C. overnight, bacterial counts were determined. LacZ staining and gentamicin protection assays were performed at 6 hpi. […] Water was changed daily with fresh antibiotics. Standard growth curve assays and hemagglutination assays were performed with TMP-SMZ. All statistical analysis performed was a two-tailed Mann-Whitney U test.
Animal infections. Bacteria were grown under type 1 pili-inducing conditions (2×24 h at 37° C. statically in LB). The bacteria were harvested and resuspended to an OD600 of 0.5 in PBS. Eight-week-old C3H/HeN (Harlan) female mice were anesthetized by inhalation of isoflurane and infected via transurethral catheterization with 50 μl of the bacterial suspension, resulting in 1-2×10^7 inoculum. At 6 hpi, mice were sacrificed by cervical dislocation under anesthesia and the bladders were immediately harvested and processed as described below. All animal studies using mice were approved by the Animal Studies Committee of Washington University (Animal Protocol Number 20100002).
Bladder tissue bacterial titer determination. Mannoside ZFH-2056 was administered either IP (5 mg/kg) or orally (100 mg/kg) 30 min prior to inoculation with UTI89. […]

## COC(=O)c1cccc(-c2ccc(O[C@H]3O[C@H](CO)[C@@H](O)[C@H](O)[C@@H]3O)cc2)c1 [Compound 1, phenyl mannoside, reference compound]
FimH lectin domain
  Kd, qualitative: picomolar range
FimH lectin domain; Table 20, read-out: Octet Kd
  Kd: 0.08 nM
FimH; Table 17
  HAI Titer EC>90: 1.00 µM
FimH; Table 20
  HAI Titer EC>90: 1.000 µM

## CNC(=O)c1cc(C(=O)NC)cc(-c2ccc(O[C@H]3O[C@H](CO)[C@@H](O)[C@H](O)[C@@H]3O)cc2)c1 [ZFH-2056]
UTI89 biofilm
  disruption / dispersal of preformed biofilm, qualitative: lacked continuity; also recorded: dispersed biofilm
UTI89
  bladder bacterial CFUs: significant drop in bacterial load
